Patent US6380181B1, “Synthetic catechol derivatives, method for production and use thereof” (priority 1996, dated 2002)
≈ marks a conversion by molar mass, not a printed value.

Experiments:
Type in all cases: cell-based
[1] = test system: Pseudomonas aeruginosa SG 137 (carbenicillin-resistant); experiment: Agar diffusion test; settings: concentration 100 μg/ml; P. aeruginosa SG 137
[2] = test system: Pseudomonas aeruginosa KW 799 WT (wild type); experiment: Agar diffusion test; settings: concentration 100 μg/ml; P. aeruginosa KW799/WT
[3] = test system: Pseudomonas aeruginosa KW 799/61 (penetration mutant); settings: concentration 100 μg/ml; P. aeruginosa KW799/61
[4] = test system: Pseudomonas aeruginosa ATCC 27853 (wild type); experiment: Agar diffusion test; settings: concentration 100 μg/ml; P. aeruginosa ATCC 27853
[5] = test system: Pseudomonas aeruginosa ATCC 9027 (wild type); experiment: Agar diffusion test; settings: concentration 100 μg/ml; P. aeruginosa ATCC 9027
[6] = test system: Pseudomonas aeruginosa NCTC 10662; experiment: Agar diffusion test; settings: concentration 100 μg/ml; P. aeruginosa NCTC 10662
[7] = test system: Pseudomonas aeruginosa NCTC 10701; experiment: Agar diffusion test; settings: concentration 100 μg/ml; P. aeruginosa NCTC 10701
[8] = test system: Pseudomonas aeruginosa NPS1 (plasmid-coded β-lactamase); settings: concentration 100 μg/ml; P. aeruginosa NPS 1
[9] = test system: Pseudomonas aeruginosa Oxa6 (plasmid-coded β-lactamase); settings: concentration 100 μg/ml; P. aeruginosa OXA 6
[10] = test system: E. coli DC2 (penetration mutant); settings: concentration 100 μg/ml
E. coli DC0 (wild type) = experiment: Agar diffusion test; settings: concentration 100 μg/ml
[11] = test system: Klebsiella pneumoniae ATCC 10031; experiment: Agar diffusion test; settings: concentration 100 μg/ml
[12] = test system: Klebsiella pneumoniae SG 117; experiment: Agar diffusion test; settings: concentration 100 μg/ml
[13] = test system: Stenotrophomonas maltophilia GN 12873; experiment: Agar diffusion test; settings: concentration 100 μg/ml
[14] = test system: Stenotrophomonas maltophilia IMET 10402; experiment: Agar diffusion test; settings: concentration 100 μg/ml
[15] = test system: Salmonella gallinarum ATCC 9184; settings: concentration 100 μg/ml; Salmonella galinarum ATCC 9184
E. coli ATCC 25922 = experiment: Microdilution test (MIC); settings: Escherichia coli, ATCC25922
Protocol: (§1) The minimum inhibiting concentrations (MICs) were determined for the following bacterial strains: Pseudomonas aeruginosa NCTC 10701, NCTC 10662, SG 137, ATCC 27853, KW 799 WT and KW 799/61, E. coli DCO, DC2 and ATCC 25922, Serratia marcescens SG 621; Salmonella gallinarum ATCC 9184, Klebsiella pneumoniae ATCC 10031 and SG 117.

[16] = test system: Klebsiella pneumoniae ATCC 10031; experiment: Microdilution test (MIC); settings: ATCC10031
Protocol: as §1

[17] = test system: Klebsiella pneumoniae SG 117; experiment: Microdilution test (MIC); settings: SG117
Protocol: as §1

[18] = test system: Pseudomonas aeruginosa ATCC 27853; experiment: Microdilution test (MIC); settings: Pseudomonas aeruginosa, ATCC27853; P. aeruginosa ATCC 27853
Protocol: as §1

[19] = test system: Pseudomonas aeruginosa NCTC 10662; experiment: Microdilution test (MIC); settings: Pseudomonas aeruginosa, NCTC10662; P. aeruginosa NCTC 10662
Protocol: as §1

[20] = test system: Pseudomonas aeruginosa NCTC 10701; experiment: Microdilution test (MIC); settings: Pseudomonas aeruginosa, NCTC10701; P. aeruginosa NCTC 10701
Protocol: as §1

[21] = test system: Pseudomonas aeruginosa SG 137; experiment: Microdilution test (MIC); settings: Pseudomonas aeruginosa, SG137; P. aeruginosa SG 137
Protocol: as §1

[22] = test system: Serratia marcescens SG 621; experiment: Microdilution test (MIC); settings: SG621
Protocol: as §1

E. coli DC0 = experiment: Microdilution test (MIC); settings: Escherichia coli, DC0, read-out: MIC values, microdilution test
In short: (§2)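 Broth microdilution MIC determination; paired strains (Pseudomonas KW 799 WT vs /61, E. coli DC0 vs DC2) used to assess the effect of improved penetration capacity on compound efficacy.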

[23] = test system: Pseudomonas aeruginosa KW 799 WT; experiment: Microdilution test (MIC); settings: Pseudomonas aeruginosa, KW799WT; P. aeruginosa KW 799/WT
In short: as §2

[24] = test system: Pseudomonas aeruginosa KW 799/61; experiment: Microdilution test (MIC); settings: Pseudomonas aeruginosa, KW799/61; P. aeruginosa KW 799/61
In short: as §2

E. coli DC2 = experiment: microbe, parasite or virus in culture; settings: Escherichia coli, read-out: MIC values, microdilution test
In short: as §2

[25] = test system: Salmonella gallinarum ATCC 9184; experiment: microbe, parasite or virus in culture; settings: Salmonella enterica; Salmonella gallinarum ATCC9184; read-out: MIC values, microdilution test
Protocol: as §1

[26] = test system: Stenotrophomonas maltophilia GN 12873; experiment: Microdilution test (MIC); settings: GN12873
E. coli mutant KB4 ompF− = test system: E. coli mutant KB4 ompF−
Source text: (§3) The efficacy against β-lactamase formers and against multi-resistant germs is therefore due to a new type of mechanism for overcoming the penetration resistance, by means of which the ratio of active ingredient to enzyme in the bacterial cell is influenced so that not all antibiotic molecules are inactivated before they reach their target.

E. coli mutant KB5 ompC− = test system: E. coli mutant KB5 ompC−
Source text: as §3

[27] = test system: E. coli mutant PLB3268 ompF++; settings: E. coli mutant PLB3268 ompF++ (ompF super-expressed)
Source text: as §3
PLB268: ompF- was super-expressed.

[28] = test system: E. coli mutant BR185 tonB−
E. coli AB2847 tonB+ = test system: E. coli AB2847 tonB+

CC1(C)S[C@@H]2[C@H](NC(=O)[C@H](NC(=O)N3CCNC3=O)c3ccccc3)C(=O)N2[C@H]1C(=O)O [Azlocillin, reference compound]
inhibition spot diameter in the agar diffusion test [1]: 17 mm | inhibition spot diameter in the agar diffusion test [2]: 27 mm | inhibition spot diameter in the agar diffusion test [3]: 40 mm | inhibition spot diameter in the agar diffusion test [4]: 19 mm | inhibition spot diameter in the agar diffusion test [5]: 15 mm | inhibition spot diameter in the agar diffusion test [6]: 17 mm | inhibition spot diameter in the agar diffusion test [7]: 27 mm | inhibition spot diameter in the agar diffusion test [8]: 0 mm | inhibition spot diameter in the agar diffusion test [9]: 0 mm | inhibition spot diameter in the agar diffusion test [10]: 33 mm | inhibition spot diameter in the agar diffusion test (E. coli DC0 (wild type)): 16 mm | inhibition spot diameter in the agar diffusion test [11]: 15 mm | inhibition spot diameter in the agar diffusion test [12]: 18 mm | inhibition spot diameter in the agar diffusion test [13]: 0 mm | inhibition spot diameter in the agar diffusion test [14]: 21 mm | inhibition spot diameter in the agar diffusion test [15]: 21 mm | MIC (E. coli ATCC 25922): 6.25 µg/mL (≈ 13.5 µM) | MIC [16]: 6.25 µg/mL (≈ 13.5 µM) | MIC [17]: 6.25 µg/mL (≈ 13.5 µM) | MIC [18]: 6.25 µg/mL (≈ 13.5 µM) | MIC [19]: 6.25 µg/mL (≈ 13.5 µM) | MIC [20]: 0.2 µg/mL (≈ 0.433 µM) | MIC [21]: 6.25 µg/mL (≈ 13.5 µM) | MIC [22]: 50 µg/mL (≈ 108 µM) | MIC (E. coli DC0): 12.5 µg/mL (≈ 27.1 µM) | MIC [23]: 3.12 µg/mL (≈ 6.76 µM) | MIC [24]: 0.2 µg/mL (≈ 0.433 µM) | MIC (E. coli DC2): 0.78 µg/mL (≈ 1.69 µM) | MIC [25]: 3.12 µg/mL (≈ 6.76 µM) | MIC [26]: 25 to 100 µg/mL (≈ 54.2 to 217 µM) | inhibition spot diameter in agar diffusion test (E. coli mutant KB4 ompF−): 6.5 mm | inhibition spot diameter in agar diffusion test (E. coli mutant KB5 ompC−): 4 mm | inhibition spot diameter in agar diffusion test [27]: 17.5 mm | inhibition spot diameter in agar diffusion test [28]: 8 mm | inhibition spot diameter in agar diffusion test (E. coli AB2847 tonB+): 8 mm
